Test results reported in patent publication US11767303B2, “Compounds and methods for inhibiting viral replication and methods of treating and preventing flaviviral infections” (priority 2020, dated 2023).
Where two headings read alike, the source gives them in different places.

Assays:
ZIKV = test: Viral titer reduction assay, ZIKV in A549 cells; assay type: cell-based, Zika virus
Protocol: Viral Titer Reduction Assay. A viral titer reduction assay was used to determine the compounds' effect on DENV2 and ZIKV strains, as described previously. […] Human A549 lung carcinoma cells and human primary neural progenitor cells were used, as described previously. […] All experiments were performed in triplicates.

DENV2 = test: Viral titer (plaque) reduction assay, DENV2 in A549 cells; assay type: cell-based, Dengue virus serotype 2
Protocol: Viral Titer Reduction Assay. A viral titer reduction assay was used to determine the compounds' effect on DENV2 and ZIKV strains, as described previously. […] Human A549 lung carcinoma cells and human primary neural progenitor cells were used, as described previously. […] 13:e1006411 (2017), which are hereby incorporated by reference in their entirety. All experiments were performed in triplicates.
A viral plaque reduction assay was performed next to evaluate the antiviral efficacy of these derivatives. Human lung carcinoma A549 cells were infected with DENV2 in the presence of a concentration series of derivatives or a dimethyl sulfoxide (DMSO) control, and viral titers were measured at 48 hrs post-infection, as described previously.

[1] = WST-8 cell proliferation cytotoxicity assay; assay type: cell-based, human; details: human
Protocol: (§1) Cytotoxicity Assay. […] All experiments were performed in triplicates.
(§2) To address this concern, next the compound cytotoxicity CC50 was measured using a WST-8 cell proliferation assay, as described previously.

DENV2 NS2B-NS3 protease = target: T1, DENV2 NS2B-NS3 protease (Dengue virus type 2, UniProt P29990); test: Protease inhibition assay (FRET peptide substrate); assay type: biochemical, Dengue virus serotype 2
T1 construct: made in house
T1 sequence (P29990 1476-1654): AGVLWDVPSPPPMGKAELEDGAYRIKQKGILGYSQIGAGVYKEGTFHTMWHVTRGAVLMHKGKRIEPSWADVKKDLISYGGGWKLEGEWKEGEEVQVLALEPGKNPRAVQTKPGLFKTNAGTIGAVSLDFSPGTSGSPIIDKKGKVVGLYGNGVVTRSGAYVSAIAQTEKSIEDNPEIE
Protocol: Protease Inhibition Assay. The protease inhibition assay was performed using the refolded DENV2 NS3 fusion protein (50 nM) and a fluorescence resonance energy transfer (FRET) peptide substrate (100 μM) (Abz-RRRRSAG-nTyr (NeoBiolab)), as described previously. […] 13:e1006411 (2017); and Lang et al., “Analysis of Protein-Protein Interactions by Split Luciferase Complementation Assay,” Curr. Protoc. Toxicol. 82:e (2019), all of which are hereby incorporated by reference in their entirety. Substrate cleavage was monitored at excitation/emission wavelengths of 360 nm/420 nm (Abz substrate) by a BioTek Flx800. The rate of increase in relative fluorescence unit (RFU) over time was calculated in the linear range and normalized as a percent of the DMSO control. The IC50/CC50/EC50 was determined by fitting the dose-responsive curve with a non-linear regression function using the GraphPad Prism 8 (San Diego, Calif.). All experiments were performed in triplicates.
Next, the inhibition efficacy of these positive derivatives were evaluated against the viral NS2B-NS3 protease function as previously described. […] Previously, two versions of the NS3 protease were generated, the NS3 protease domain refolded from inclusion bodies and a soluble version of the NS3 protease domain fused to maltose-binding protein (MBP). […]

[2] = target: T2, DENV2 NS2B-NS3 interaction (Dengue virus type 2, UniProt P29990); test: Split luciferase complementation (SLC) NS2B-NS3 interaction assay; assay type: binding, Dengue virus serotype 2; details: concentration reducing 50% of SLC signal; read-out: IC50-SLC-(DN2)
T2 construct: GST (N); made in house
T2 sequence (P29990 1476-1654): as above

A549 cells = test: WST-8 cell proliferation cytotoxicity assay; assay type: cell-based, human; details: Table 4, preliminary SAR, A549 cells; read-out: CC50
Protocol: as §1, §2

[3] = not told
in vitro = details: not told, Perme. (cell permeability)
DENV2 replicon = DENV2 replicon assay in BHK-21 cells (Renilla luciferase); assay type: cell-based, Dengue virus serotype 2; details: Dengue virus, BHK-21 replicon cells, 48 hours, read-out: EC50-DN2 (DENV2 replicon)
Protocol: DENV2 Replicon Assay. […] The cells were incubated at 37° C. in a humidified incubator with 5% CO2 for hrs in a 100 μl medium containing Minimal Essential Medium (MEM) supplemented with 10% fetal bovine serum (FBS), 100 I.U./ml penicillin, 100 g/ml streptomycin, and 300 μg/ml G418. Upon 24 hrs incubation, culture medium was discarded. Fresh culture medium of 100 μl with a concentration series of compounds or DMSO control was added to the cells in triplicates. The culture was further incubated for 48 hours. The cells were then washed twice with 100 μl phosphate-buffered saline (PBS), followed by addition of 25 μl of a lysis buffer containing 1×PBS and 1% Triton X-100. The mixture was incubated at room temperature with gentle shaking (50 rpm) for 30 minutes. Assay buffer (125 μl) containing 1×PBS, 0.05% (3-((3-cholamidopropyl) dimethylammonio)-1-propanesulfonate) (CHAPS), and 0.1% BSA was then added to each well. In the meantime, a fresh 4× working substrate coelenterazine was prepared by diluting 1 μl of stock coelenterazine (2.4 mM) dissolved in ethanol into 10 ml assay buffer (10,000-fold dilution). […] The luminescence was recorded immediately using the Veritas luminometer. The luminescence data was normalized to DMSO control. The EC50 was determined by nonlinear regression fitting of normalized experimental data in GraphPad Prism 8.0 (San Diego, Calif.). […]

[4] = Pharmacokinetics in B6 mice after oral gavage
Source text: Pharmacokinetics. […] Fan et al., “Contributions of Hepatic and Intestinal Metabolism to the Disposition of Niclosamide, a Repurposed Drug with Poor Bioavailability,” Drug Metab. Dispos. 47:756-763 (2019), which is hereby incorporated by reference in its entirety. […] Student's t-test was used. P values<0.05 were considered statistically significant.

Aqueous solubility = assay type: physicochemical
[5] = Zika virus, A549, read-out: EC50-ZK
[6] = Zika virus, A549, read-out: EC50-ZK (A549)
[7] = Dengue virus, DENV2, A549 cells, 48 hrs post-infection, read-out: EC50-DN2 (A549)
[8] = Dengue virus, DENV2, Table 4, preliminary SAR, A549 cells, read-out: EC50-DN2
[9] = A549 cells, read-out: CC50 (A549)
[10] = refolded NS3, read-out: IC50-pro (DN2)
[11] = Table 4, preliminary SAR, read-out: IC50-pro(DN2)
[12] = Table 4, preliminary SAR, A549 cells, read-out: EC50-ZK
[13] = Table 4, preliminary SAR, A549 cells, read-out: EC50-DN2
[14] = female, B6, mouse, in vivo, po, 40 mg/kg

SMILES | logP (LogP) | EC50 (ZIKV; [5]) [µM] | EC50 (ZIKV; [6]) [µM] | EC50 (DENV2; [7]) [µM] | EC50 (DENV2; [8]) [µM] | CC50 [1, 9] [µM] | IC50 (DENV2 NS2B-NS3 protease; [10]) [µM] | IC50 [2] [µM] | also measured
CC(=O)Nc1ccc(NC(=O)c2cc(Cl)ccc2O)c(Cl)c1 [HJC0140] | 2.47 | > 30 | > 30 | > 30 | > 30 | – | – | – | –
CC(=O)Oc1ccccc1C(=O)Nc1ncc([N+](=O)[O-])s1 [NTZ, nitazoxanide, reference compound] | – | – | – | – | 0.3 | – | – | – | CC50 [1]: 77 µM; logP (physchem): 2.14; EC50 (ZIKV; Zika virus, Table 4, preliminary SAR, A549 cells, read-out: EC50-ZK): 1.5 µM
O=C(Nc1ccc([N+](=O)[O-])cc1Cl)c1cc(Cl)ccc1OC1CCNCC1 [HJC0125] | – | – | 0.15 | 0.21 | – | 50.2 | 44.5 | 16.3 | –
O=C(Nc1cc(F)cc(C(F)(F)F)c1)c1cccc([N+](=O)[O-])c1O [JMX0317] | 3.26 | – | – | – | – | – | – | – | CC50 (A549 cells): 20.4 µM; IC50 (DENV2 NS2B-NS3 protease; [11]): 8.4 µM; EC50 (ZIKV; [12]): 0.12 µM; Perme. (cell permeability) [3]: 2.9 ×10⁻⁶ cm/s; EC50 (DENV2; [13]): 0.2 µM
NCCCOc1ccc(Cl)cc1C(=O)Nc1ccc([N+](=O)[O-])cc1Cl [HJC0308] | – | – | 6.2 | 1.4 | – | 17.7 | 39.7 | 4.9 | –
O=C(Nc1ccc([N+](=O)[O-])cc1Cl)c1cc(Cl)ccc1O [Niclosamide, reference compound] | – | 0.48 | 0.48 | – | – | – | – | 2 | CC50 (A549 cells): 4.8 µM; Papp (in vitro): 0.25 ×10⁻⁶ cm/s; logP (physchem): 3.38; EC50 (DENV2 replicon): 2 µM; T1/2 ± S.D. ([4]; B6 mice, single oral dose 40 mg/kg, plasma): 4.6 ± 1.0 h; AUC0→∞ ± S.D. [4, 14]: 3.5 ± 0.8; Cmax [4, 14]: 600 nM; Tmax ± S.D. [4, 14]: 0.7 ± 0.4 h; EC50 (DENV2; Dengue virus, DENV2, A549, 48 h, read-out: EC50-DN2 (A549)): 0.55 µM
O=C(Nc1ccc(C(F)(F)F)cc1Cl)c1cc(Cl)ccc1O [JMX0308] | 4.49 | – | – | – | – | – | – | – | EC50 (ZIKV; [12]): 0.12 µM; Perme. (cell permeability) [3]: 0.27 ×10⁻⁶ cm/s; EC50 (DENV2; [13]): 0.09 µM
CN1CCC(Oc2ccc(Cl)cc2C(=O)Nc2ccc([N+](=O)[O-])cc2Cl)CC1 [HJC0381] | 2.38 | 3.9 | 3.9 | 1.2 | 1.2 | 91.1 | 25.9 | 10.8 | aqueous solubility (Aqueous solubility): significantly improves the aqueous solubility
CN1CCN(CCOc2ccc(Cl)cc2C(=O)Nc2ccc([N+](=O)[O-])cc2Cl)CC1 [HJC0365] | – | – | 6 | 6.4 | – | 177 | > 60 | 13.2 | –
CC[C@H](N)COc1ccc(Cl)cc1C(=O)Nc1ccc([N+](=O)[O-])cc1Cl [HJC0390] | – | – | < 0.1 | 0.43 | – | 30.1 | 46.5 | 6 | –
O=C(Nc1ccc2c(c1)S(=O)(=O)C=C2)c1cc(Cl)ccc1O [HJC0149] | 2.41 | 1.1 | 1.1 | 0.9 | 0.9 | 241 | 20.3 | 18.6 | –
O=C(NC(Cc1ccccc1)C(=O)Nc1ccc([N+](=O)[O-])cc1Cl)c1cc(Cl)ccc1O (stereo not drawn) [JMX0285] | 3.84 | – | – | – | – | – | – | – | CC50 (A549 cells): 16.5 µM; IC50 (DENV2 NS2B-NS3 protease; [11]): 5.7 µM; EC50 (ZIKV; [12]): 0.3 µM; Perme. (cell permeability) [3]: 0.25 ×10⁻⁶ cm/s; EC50 (DENV2; [13]): 0.48 µM
Nc1ccc(NC(=O)c2cc(Cl)ccc2O)c(Cl)c1 [HJC0129] | 2.76 | > 30 | > 30 | > 30 | > 30 | 176 | 11.3 | 9.6 | –
NCCCCOc1ccc(Cl)cc1C(=O)Nc1ccc([N+](=O)[O-])cc1Cl [HJC0431] | 3.9 | 0.36 | 0.36 | 2.2 | 2.2 | 28.4 | 34 | 3.1 | aqueous solubility (Aqueous solubility): significantly improves the aqueous solubility
O=C(Nc1ccc([N+](=O)[O-])cc1Cl)c1cc(Cl)ccc1OCCN1CCOCC1 [HJC0114] | – | – | > 30 | > 30 | – | > 200 | 33.6 | 18.4 | –
